Results taken from ChEMBL document CHEMBL3352151, “In vitro and in vivo antibacterial evaluation and mechanistic study of ornithine based small cationic lipopeptides against antibiotic resistant clinical isolates” (Eur J Med Chem, 2014).
Values after ≈ are worked out from the molar mass of the structure shown. Active and inactive are the calls of the source. The rule behind the calls is not given here. Square brackets hold non-standard residues; d marks the D form. Peptide text beside a SMILES is read from it. * marks the point of attachment. Stearoyl = CCCCCCCCCCCCCCCCCC(=O)*; Palmitoyl = CCCCCCCCCCCCCCCC(=O)*; Myristoyl = CCCCCCCCCCCCCC(=O)*; Orn = NCCC[CH](N)C(=O)O

How the values were obtained:
[1] = test system: Enterococcus faecalis; assay: Antibacterial activity against clinical isolates of gentamicin-resistant Enterococcus faecalis GMCH/R-Gen011 after overnight incubation by microdilution broth assay; type: functional
[2] = test system: Enterococcus faecium; assay: Antibacterial activity against clinical isolates of penicillin-resistant Enterococcus faecium GMCH/R-Pen003 after overnight incubation by microdilution broth assay; type: functional
[3] = test system: Enterococcus faecalis; assay: Antibacterial activity against clinical isolates of Enterococcus faecalis GMCH/B0091 after overnight incubation by microdilution broth assay; type: functional
[4] = test system: Staphylococcus aureus; assay: Antibacterial activity against clinical isolates of Staphylococcus aureus PGI/DML03054 after overnight incubation by microdilution broth assay; type: functional
[5] = test system: Staphylococcus aureus; assay: Antibacterial activity against clinical isolates of methicillin-resistant Staphylococcus aureus PGI/DML03149 after overnight incubation by microdilution broth assay; type: functional
[6] = test system: Acinetobacter baumannii; assay: Antibacterial activity against clinical isolates of Acinetobacter baumannii GMCH/B0083 after overnight incubation by microdilution broth assay; type: functional
[7] = test system: Haemophilus influenzae; assay: Antibacterial activity against clinical isolates of ciprofloxacin-resistant Haemophilus influenzae PGI/DML01744 after overnight incubation by microdilution broth assay; type: functional
[8] = Cytotoxicity against human HaCaT cells assessed as cell viability at 500 ug/ml after 18 hrs by MTT assay; type: cell-based; conditions: read-out: Activity
[9] = test system: Streptococcus pneumoniae; assay: Antibacterial activity against clinical isolates of Streptococcus pneumoniae PGI/DML02468 after overnight incubation by microdilution broth assay; type: functional
[10] = test system: Acinetobacter baumannii; assay: Antibacterial activity against clinical isolates of imipenem-resistant Acinetobacter baumannii GMCH/R-Imi003 after overnight incubation by microdilution broth assay; type: functional
[11] = test system: Staphylococcus epidermidis; assay: Antibacterial activity against clinical isolates of ampicillin-resistant Staphylococcus epidermidis GMCH/R-Amp008 after overnight incubation by microdilution broth assay; type: functional
[12] = test system: Streptococcus pneumoniae; assay: Antibacterial activity against clinical isolates of erythromycin-resistant Streptococcus pneumoniae PGI/DML02213 after overnight incubation by microdilution broth assay; type: functional
[13] = test system: Staphylococcus epidermidis; assay: Antibacterial activity against clinical isolates of Staphylococcus epidermidis GMCH/B0057 after overnight incubation by microdilution broth assay; type: functional
[14] = test system: Escherichia coli; assay: Antibacterial activity against clinical isolates of imipenem-resistant Escherichia coli PGI/DML02292 after overnight incubation by microdilution broth assay; type: functional
[15] = test system: Enterococcus faecium; assay: Antibacterial activity against clinical isolates of Enterococcus faecium GMCH/B0102 after overnight incubation by microdilution broth assay; type: functional
[16] = test system: Escherichia coli; assay: Antibacterial activity against clinical isolates of Escherichia coli PGI/DML02250 after overnight incubation by microdilution broth assay; type: functional
[17] = test system: Pseudomonas aeruginosa; assay: Antibacterial activity against clinical isolates of streptomycin-resistant Pseudomonas aeruginosa PGI/DML01991 after overnight incubation by microdilution broth assay; type: functional
[18] = test system: Pseudomonas aeruginosa; assay: Antibacterial activity against clinical isolates of Pseudomonas aeruginosa PGI/DML02084 after overnight incubation by microdilution broth assay; type: functional
[19] = test system: Haemophilus influenzae; assay: Antibacterial activity against clinical isolates of Haemophilus influenzae PGI/DML01751 after overnight incubation by microdilution broth assay; type: functional
[20] = test system: Klebsiella pneumoniae; assay: Antibacterial activity against clinical isolates of kanamycin-resistant Klebsiella pneumoniae GMCH/R-Kan006 after overnight incubation by microdilution broth assay; type: functional
[21] = Cytotoxicity against human HaCaT cells assessed as cell viability at 100 ug/ml after 18 hrs by MTT assay; type: cell-based; conditions: read-out: Activity
[22] = test system: Klebsiella pneumoniae; assay: Antibacterial activity against clinical isolates of Klebsiella pneumoniae GMCH/B0127 after overnight incubation by microdilution broth assay; type: functional
[23] = Membrane permeabilization activity assessed as release of calcein from liposomes after 5 mins by fluorescence assay
[24] = Membrane permeabilization activity assessed as release of calcein from liposomes at 1:50 lipopeptide:lipid molar ratio after 5 mins by fluorescence assay
[25] = test system: Plasma; assay: Drug degradation in human plasma at 1 ug/ml after 24 hrs by RP-HPLC analysis; type: ADME, cell-free
[26] = Membrane permeabilization activity assessed as release of calcein from liposomes at 1:10 lipopeptide:lipid molar ratio after 5 mins by fluorescence assay
[27] = test system: Escherichia coli; assay: Binding affinity to Escherichia coli PGI/DML02292 DNA at 12 ug/ml after 1 hr by agarose gel electrophoresis

Structure (SMILES): CCCCCCCCCCCCCC(=O)NC(CCCN)C(=O)NC(CCCN)C(=O)NC(CCCN)C(=O)NC(CCCN)C(=O)NC(CCCN)C(N)=O (stereo not given) (Myristoyl-[Orn][Orn][Orn][Orn][Orn]-NH2; configuration not given here)
- MIC [1]: 10.5 µg/mL (≈ 13.2 µM)
- MIC [2]: 6.21 µg/mL (≈ 7.78 µM)
- MIC [3]: 1.5 µg/mL (≈ 1.88 µM)
- MIC [4]: 10 µg/mL (≈ 12.5 µM)
- MIC [5]: 12.5 µg/mL (≈ 15.7 µM)
- MIC [6]: 8.25 µg/mL (≈ 10.3 µM)
- MIC [7]: 15.5 µg/mL (≈ 19.4 µM)
- viability at 18 h, 500 ug/ml [8]: > 80%
- MIC [9]: 3.5 µg/mL (≈ 4.39 µM)
- MIC [10]: 6.5 µg/mL (≈ 8.14 µM)
- MIC [11]: 12.5 µg/mL (≈ 15.7 µM)
- MIC [12]: 12.5 µg/mL (≈ 15.7 µM)
- MIC [13]: 7.5 µg/mL (≈ 9.4 µM)
- MIC [14]: 6.25 µg/mL (≈ 7.83 µM)
- MIC [15]: 3.1 µg/mL (≈ 3.88 µM)
- MIC [16]: 2.5 µg/mL (≈ 3.13 µM)
- MIC [17]: 4.25 µg/mL (≈ 5.32 µM)
- MIC [18]: 1.5 µg/mL (≈ 1.88 µM)
- MIC [19]: 12.5 µg/mL (≈ 15.7 µM)
- MIC [20]: 7.5 µg/mL (≈ 9.4 µM)
- viability at 18 h, 100 ug/ml [21]: > 80%
- MIC [22]: 6.2 µg/mL (≈ 7.77 µM)

Structure (SMILES): CCCCCCCCCCCCCCCC(=O)NC(CCCN)C(=O)NC(CCCN)C(=O)NC(CCCN)C(=O)NC(CCCN)C(N)=O (stereo not given) (Palmitoyl-[Orn][Orn][Orn][Orn]-NH2; configuration not given here)
- MIC [1]: 7.5 µg/mL (≈ 10.5 µM)
- MIC [2]: 3.5 µg/mL (≈ 4.92 µM)
- MIC [3]: 3.5 µg/mL (≈ 4.92 µM)
- MIC [4]: 3.1 µg/mL (≈ 4.35 µM)
- MIC [5]: 4.5 µg/mL (≈ 6.32 µM)
- MIC [6]: 6.5 µg/mL (≈ 9.13 µM)
- MIC [7]: 12.5 µg/mL (≈ 17.6 µM)
- viability at 18 h, 500 ug/ml [8]: > 80%
- MIC [9]: 2.5 µg/mL (≈ 3.51 µM)
- MIC [10]: 10 µg/mL (≈ 14 µM)
- MIC [11]: 2 µg/mL (≈ 2.81 µM)
- MIC [12]: 10.5 µg/mL (≈ 14.7 µM)
- MIC [13]: 2.5 µg/mL (≈ 3.51 µM)
- MIC [14]: 12.5 µg/mL (≈ 17.6 µM)
- MIC [15]: 3.5 µg/mL (≈ 4.92 µM)
- MIC [16]: 2 µg/mL (≈ 2.81 µM)
- MIC [17]: 6.25 µg/mL (≈ 8.78 µM)
- MIC [18]: 3 µg/mL (≈ 4.21 µM)
- MIC [19]: 7.5 µg/mL (≈ 10.5 µM)
- MIC [20]: 5.5 µg/mL (≈ 7.72 µM)
- viability at 18 h, 100 ug/ml [21]: > 80%
- MIC [22]: 2 µg/mL (≈ 2.81 µM)

Structure (SMILES): CCCCCCCCCCCCCCCC(=O)NC(CCCN)C(=O)NC(CCCN)C(=O)NC(CCCN)C(=O)NC(CCCN)C(=O)NC(CCCN)C(N)=O (stereo not given) (Palmitoyl-[Orn][Orn][Orn][Orn][Orn]-NH2; configuration not given here)
- MIC [1]: 12.5 µg/mL (≈ 15.1 µM)
- MIC [2]: 7.5 µg/mL (≈ 9.08 µM)
- MIC [3]: 2 µg/mL (≈ 2.42 µM)
- MIC [4]: 7.5 µg/mL (≈ 9.08 µM)
- MIC [5]: 10 µg/mL (≈ 12.1 µM)
- MIC [6]: 12.5 µg/mL (≈ 15.1 µM)
- MIC [7]: 12.5 µg/mL (≈ 15.1 µM)
- viability at 18 h, 500 ug/ml [8]: > 80%
- MIC [9]: 3.1 µg/mL (≈ 3.75 µM)
- MIC [10]: 9.5 µg/mL (≈ 11.5 µM)
- MIC [11]: 7.5 µg/mL (≈ 9.08 µM)
- MIC [12]: 7.5 µg/mL (≈ 9.08 µM)
- MIC [13]: 3.1 µg/mL (≈ 3.75 µM)
- MIC [14]: 5 µg/mL (≈ 6.05 µM)
- MIC [15]: 3 µg/mL (≈ 3.63 µM)
- MIC [16]: 1.5 µg/mL (≈ 1.82 µM)
- MIC [17]: 6.5 µg/mL (≈ 7.87 µM)
- MIC [18]: 2 µg/mL (≈ 2.42 µM)
- MIC [19]: 10 µg/mL (≈ 12.1 µM)
- MIC [20]: 10 µg/mL (≈ 12.1 µM)
- viability at 18 h, 100 ug/ml [21]: > 80%
- MIC [22]: 2.5 µg/mL (≈ 3.03 µM)

Structure (SMILES): CCCCCCCCCCCCCCCCCC(=O)NC(CCCN)C(=O)NC(CCCN)C(=O)NC(CCCN)C(=O)NC(CCCN)C(N)=O (stereo not given) (Stearoyl-[Orn][Orn][Orn][Orn]-NH2; configuration not given here)
- MIC [1]: 10 µg/mL (≈ 13.5 µM)
- MIC [2]: 12.5 µg/mL (≈ 16.9 µM)
- MIC [3]: 3.1 µg/mL (≈ 4.19 µM)
- MIC [4]: 5 µg/mL (≈ 6.76 µM)
- MIC [5]: 7.5 µg/mL (≈ 10.1 µM)
- MIC [6]: 10 µg/mL (≈ 13.5 µM)
- MIC [7]: 12.5 µg/mL (≈ 16.9 µM)
- viability at 18 h, 500 ug/ml [8]: 67%
- MIC [9]: 4 µg/mL (≈ 5.4 µM)
- Activity [23]: Dose-dependent effect
- Activity [24]: 43%
- MIC [10]: 12.5 µg/mL (≈ 16.9 µM)
- Stability [25]: Stable
- Activity [26]: 79%
- MIC [11]: 5 µg/mL (≈ 6.76 µM)
- MIC [12]: 12.5 µg/mL (≈ 16.9 µM)
- MIC [13]: 5.5 µg/mL (≈ 7.43 µM)
- MIC [14]: 7.5 µg/mL (≈ 10.1 µM)
- MIC [15]: 7.5 µg/mL (≈ 10.1 µM)
- MIC [16]: 7.5 µg/mL (≈ 10.1 µM)
- MIC [17]: 2 µg/mL (≈ 2.7 µM)
- MIC [18]: 4.5 µg/mL (≈ 6.08 µM)
- MIC [19]: 8 µg/mL (≈ 10.8 µM)
- MIC [20]: 8 µg/mL (≈ 10.8 µM)
- viability at 18 h, 100 ug/ml [21]: 82%
- Activity [27]: inactive
- MIC [22]: 3.5 µg/mL (≈ 4.73 µM)

Structure (SMILES): CCCCCCCCCCCCCCCCCC(=O)NC(CCCN)C(=O)NC(CCCN)C(=O)NC(CCCN)C(=O)NC(CCCN)C(=O)NC(CCCN)C(N)=O (stereo not given) (Stearoyl-[Orn][Orn][Orn][Orn][Orn]-NH2; configuration not given here)
- MIC [1]: 15 µg/mL (≈ 17.6 µM)
- MIC [2]: 12.5 µg/mL (≈ 14.6 µM)
- MIC [3]: 4.5 µg/mL (≈ 5.27 µM)
- MIC [4]: 6.2 µg/mL (≈ 7.26 µM)
- MIC [5]: 10.5 µg/mL (≈ 12.3 µM)
- MIC [6]: 10 µg/mL (≈ 11.7 µM)
- MIC [7]: 15 µg/mL (≈ 17.6 µM)
- viability at 18 h, 500 ug/ml [8]: > 80%
- MIC [9]: 2.5 µg/mL (≈ 2.93 µM)
- MIC [10]: 7.5 µg/mL (≈ 8.78 µM)
- MIC [11]: 10.5 µg/mL (≈ 12.3 µM)
- MIC [12]: 10 µg/mL (≈ 11.7 µM)
- MIC [13]: 4.5 µg/mL (≈ 5.27 µM)
- MIC [14]: 7.5 µg/mL (≈ 8.78 µM)
- MIC [15]: 6.2 µg/mL (≈ 7.26 µM)
- MIC [16]: 5 µg/mL (≈ 5.85 µM)
- MIC [17]: 5 µg/mL (≈ 5.85 µM)
- MIC [18]: 2.5 µg/mL (≈ 2.93 µM)
- MIC [19]: 10 µg/mL (≈ 11.7 µM)
- MIC [20]: 12.5 µg/mL (≈ 14.6 µM)
- viability at 18 h, 100 ug/ml [21]: > 80%
- MIC [22]: 4 µg/mL (≈ 4.68 µM)
